{
  "source": "patent US20250042864A1",
  "about": "“SOLID STATE FORM OF TAFAMIDIS” (TEVA PHARMACEUTICALS INTERNATIONAL GMBH, priority 2021, published 2025)",
  "type_in_all_cases": "physicochemical",
  "key": {"[1]": {"experiment": "particle size / morphology of crystalline forms", "conditions": "morphology comparison of crystalline forms"}, "[2]": {"experiment": "water solubility of crystalline forms of tafamidis"}, "[3]": {"experiment": "stability to suspension (slurry) in PEG 400 at room temperature, analysed by XRPD", "conditions": "slurry in PEG 400, room temperature, XRPD (FIG. 6)", "protocol": "50 mg of samples of Form Va and Form 4 were placed into glass vials. 1 ml of PEG 400 was added at room temperature. The slurries were each mixed using a magnetic stirrer. The resulting samples were analysed by XRPD after 2 hours and after 7 days."}},
  "data": [
    {"smiles": "O=C(O)c1ccc2nc(-c3cc(Cl)cc(Cl)c3)oc2c1", "note": "[Form 1, 2-(3,5-dichlorophenyl)-1,3-benzoxazole-6-carboxylic acid]", "values": [
      {"measurement": "particle size", "setting": "[1]", "value": "up to 100 μm"}
    ]},
    {"smiles": "O=C(O)c1ccc2nc(-c3cc(Cl)cc(Cl)c3)oc2c1", "note": "[Form 6, 2-(3,5-dichlorophenyl)-1,3-benzoxazole-6-carboxylic acid]", "values": [
      {"measurement": "particle size", "setting": "[1]", "value": "> 100", "unit": "μm"}
    ]},
    {"smiles": "O=C(O)c1ccc2nc(-c3cc(Cl)cc(Cl)c3)oc2c1", "note": "[Form V, 2-(3,5-dichlorophenyl)-1,3-benzoxazole-6-carboxylic acid]", "values": [
      {"measurement": "water solubility", "setting": "[2]", "value": 1.47, "unit": "µg/mL"}
    ]},
    {"smiles": "O=C(O)c1ccc2nc(-c3cc(Cl)cc(Cl)c3)oc2c1", "note": "[Form Va, 2-(3,5-dichlorophenyl)-1,3-benzoxazole-6-carboxylic acid]", "values": [
      {"measurement": "time for which the form is stable in PEG 400 slurry", "setting": "[3]", "value": "at least 7 days"},
      {"measurement": "solubility", "setting": "[2]", "value": 2.21, "unit": "µg/mL"},
      {"measurement": "particle size", "setting": "[1]", "value": "5-10 μm"}
    ]}
  ]
}
